Tested on: NCI60 cell lines
Details: not told
Experimental: Compounds are tested according to a standard protocol (dtp.nci.nih.gov/branches/btb/ivclsp.html, reproduced as Appendix B), and GI50 data (i.e., data indicating the concentration of a compound that inhibits growth of a particular cell line by 50% after 48 hours of exposure) for many compounds, including a set of 171 so-called Standard Agents (dtp.nci.nih.gov/docs/cancer/searches/standard_agent.html, reproduced as Appendix C) are made publicly available.
Inventive biomarker:compound correlations are established by comparing the expression/activity expression and compound toxicity datasets. […] Such comparisons can quantify the association between the variables, e.g., using a Pearson or Spearman correlation. […] For example, to aid in the identification of non-linear relationships between compound toxicity and presence of a biomarker (e.g., a threshold response), values above or below a certain limit may be given a common value, or weighted, before the comparison is measured.
The present inventors established a gene expression profile for each of the 59 publicly-available NCI60 cell lines. […] Specifically, cDNAs that were detectable in fewer than 80% of the cell lines were discarded; approximately 17,000 unique genes were left whose measurements were recorded. […]

SMILES: CC(=O)O[C@H]1C(=O)[C@@]2(C)[C@H]([C@H](OC(=O)c3ccccc3)[C@]3(O)C[C@H](OC(=O)[C@H](O)[C@@H](NC(=O)c4ccccc4)c4ccccc4)C(C)=C1C3(C)C)[C@]1(OC(C)=O)CO[C@@H]1C[C@@H]2O [Paclitaxol]
- correlation of toxicity pattern with ABCB1 (PGP) gene expression: highest negative correlation

— patent publication US20050227266A1, “Biomarker:compound correlations in cancer diagnosis and therapy” (priority 2004, published 2005)
